Assays:
Pyramidal neurons in CA1 = test: Whole-cell voltage clamp recordings (AMPA:NMDA ratio, mEPSC) in AAV-PTPN11^D61G-infected hippocampi; assay type: cell-based, mice; conditions: SL327 1 μM; for AMPA:NMDA current ratio: 1 hr
Experimental: FIG. 4 are graphs showing PTPN11^D61G overexpression enhances excitatory synaptic function through increased Ras-Erk signaling. Panel a) AMPA receptor-mediated currents were measured at the peak of the currents at −65 mV, and NMDA currents were measured 50 ms after onset at +40 mV. The average of 15 traces is shown. Scale, 100 pA and 40 ms. Panel b) Group data showing the increased AMPA:NMDA current ratio in AAV-PTPN11^D61G mice (1.51±0.11, n=10 cells from 5 mice) compared with AAV-GFP mice (0.96±0.05, n=10 cells from 5 mice, t-test, ***P<0.001). […] Two-way ANOVA, interaction between viral treatment and drug, F(1, 31)=10.53, **P<0.01. […] Panel c) Paired-pulse facilitation ratio is unaffected by PTPN11^D61G. There was no significant difference at 25 ms or 50 ms intervals between two groups (AAV-PTPN11^D61G, n=12 cells from 5 mice; AAV-GFP, n=11 cells from 5 mice). Repeated-measures ANOVA, F(1, 21)=0.010, P=0.921. Panel d) PTPN11^D61G overexpression increases excitatory synaptic function. mEPSC frequency was increased in AAV-PTPN11^D61G-infected mice compared with AAV-GFP mice, and was reversed by SL327 (1 μM) treatment without affecting on the AAV-GFP group. mEPSC frequency: GFP/Veh, 1.50±0.53, n=9; PTPN11^D61G/Veh, 4.64±0.94, n=9; GFP/SL327, 1.28±0.19, n=7; PTPN11^D61G/SL327, 2.02±0.32, n=9; Two-way ANOVA with viral treatment as between-subjects factor, F(1, 30)=10.31, **P<0.01. […] Two-way ANOVA with viral treatment as between-subjects factor, F(1, 30)=0.470, P=0.498. Scale, 20 pA and 200 ms. Panel e) Excitatory synaptic function is increased in Ptpn11^D61G/+ mice and reversed by SL327 treatment. mEPSC frequency was increased in Ptpn11^D61G/+ mice compared with WT littermates, and was reversed by SL327 (1 μM) treatment. mEPSC frequency: WT/Veh, 2.68±0.55, n=9; Ptpn11^D61G/+/Veh, 5.71±0.56, n=10; WT/SL327, 2.46±0.63, n=9; Ptpn11^D61G/+/SL327, 2.87±1.02, n=9; Two-way ANOVA with genotype as between-subjects factor, F(1, 33)=5.914, *P<0.05. […] Two-way ANOVA with genotype as between-subjects factor, F(1, 33)=0.418, P=0.839. Scale, 20 pA and 200 ms.
We examined the electrophysiological mechanism underlying the LTP impairment in AAV-PTPN11^D61G-infected mice. Increases in Ras signaling are known to facilitate AMPA receptor trafficking to the surface membrane^20. For example, expression of constitutively active Ras enhances AMPA receptor-mediated currents in hippocampal neurons and impairs LTP^20. […]
(§1) Whole-cell voltage clamp recordings were done with an Axopatch 200B amplifier (Axon Instrument) as previously described^29, 30. […] For mEPSC recordings, voltage clamp recordings were performed at −60 mV in the presence of 100 μM picrotoxin and 1 μM TTX. mIPSCs were measured at +10 mV in the presence of 1 mM kynurenic acid and 1 μM TTX. […]

[1] = test system: pyramidal neurons of Ptpn11^D61G/+ mice; test: Whole-cell voltage clamp mEPSC recordings in Ptpn11^D61G/+ mice; assay type: cell-based; conditions: SL327 1 μM
Experimental: FIG. 4 are graphs showing PTPN11^D61G overexpression enhances excitatory synaptic function through increased Ras-Erk signaling. Panel a) AMPA receptor-mediated currents were measured at the peak of the currents at −65 mV, and NMDA currents were measured 50 ms after onset at +40 mV. The average of 15 traces is shown. Scale, 100 pA and 40 ms. Panel b) Group data showing the increased AMPA:NMDA current ratio in AAV-PTPN11^D61G mice (1.51±0.11, n=10 cells from 5 mice) compared with AAV-GFP mice (0.96±0.05, n=10 cells from 5 mice, t-test, ***P<0.001). […] Two-way ANOVA, interaction between viral treatment and drug, F(1, 31)=10.53, **P<0.01. […] Panel c) Paired-pulse facilitation ratio is unaffected by PTPN11^D61G. There was no significant difference at 25 ms or 50 ms intervals between two groups (AAV-PTPN11^D61G, n=12 cells from 5 mice; AAV-GFP, n=11 cells from 5 mice). Repeated-measures ANOVA, F(1, 21)=0.010, P=0.921. […]
as §1

For `N#C/C(=C(/N)Sc1ccc(N)cc1)c1ccccc1C(F)(F)F` [SL327], the mEPSC frequency (Pyramidal neurons in CA1; AAV-GFP mice) was 1.28±0.19, the mEPSC frequency (Pyramidal neurons in CA1; AAV-PTPN11^D61G-infected mice) was 2.02±0.32 and the “AMPA:NMDA current ratio” value (Pyramidal neurons in CA1; GFP group) was 1.08±0.07. The “AMPA:NMDA current ratio” value (Pyramidal neurons in CA1; PTPN11^D61G group) was 1.07±0.11, the mEPSC frequency ([1]; Ptpn11^D61G/+ mice) was 2.87±1.02 and the mEPSC frequency ([1]; WT littermates) was 2.46±0.63.

Reference: patent US10835513B2, “Methods and treatments for the learning and memory deficits associated with Noonan syndrome” (The Regents of the University of California, priority 2013, dated 2020)
